# Test results: patent US20260042746A1, “2(1H)-PYRIDINIMINE DERATIVE” (SUMITOMO PHARMA CO., LTD., priority 2022, published 2026)
# Test system: α-synuclein aggregate
# Experiment: Test 2: suppressing the accumulation of α-synuclein aggregate in neurospheroid from PLA2G6 mutant human iPS cells
# Assay type: cell-based
# Conditions: compound added day 4, measured day 9, DMSO = 100%; for activity at 0.1 µM: 100 nM, read-out: Amount of aggregate (%) 100 nM; for activity at 1 µM: 1000 nM, read-out: Amount of aggregate (%) 1000 nM
# Method: Test 2: Evaluation of Suppressing the Accumulation of α-Synuclein Aggregate with Neurospheroid Prepared from Human iPS Cells with a Mutation in PLA2G6 Gene
# (1) Induction of Differentiation from Human iPS Cell to Neural Cell
# Neural stem cells were induced from PLA2G6 gene mutant iPS cells with PSC Neuronal Induction Medium (Thermo Fisher Scientific Inc., cat #A1647801). Neurospheroid was prepared from the induced neural stem cells by three-dimensional culture system, and preserved with BrainPhys Neuronal Medium (STEMCELL Technologies, cat #ST-05793) comprising NeuroCult SM1 Neuronal Supplement, N2 Supplement-A, 20 ng/mL BDNF, 20 ng/mL GDNF, 1 mM dibutyryl cAMP, and 200 nM ascorbic acid. Half of the culture medium was replaced on day 2 and day 4 after the induction of differentiation.
# The test compound was diluted with the culture medium so as to be twice the final concentration, and an equal volume of the twice-concentrated solution was added to each well when half of the culture medium was replaced on day 4 after induction of differentiation.
# (2) Evaluation of the Amount of α-Synuclein Aggregate
# From the neurospheroid 9 days after the induction of differentiation, proteins were extracted with a TBS solution containing 1% TritionX-100, and the extracted proteins were subjected to a protein analysis with Simple Western system (Protein Simple, Inc., cat #SM-W008) using an α-synuclein antibody (Thermo Fisher Scientific Inc., cat #AHB0261) to measure the amount of the α-synuclein aggregate.
# Assuming that the amount of the aggregate in the neurospheroid added with a DMSO solution is 100%, the amount of the aggregate in the neurospheroid added with each test compound was evaluated.
SMILES,activity at 0.1 µM,activity at 1 µM
Cc1ccn(C)/c(=N/C(=O)C2(C)COC2)c1 [Example 4],10%,120%
CCC1(C(=O)/N=c2\cc(C)ccn2C)COC1 [Example 5],113%,91%
Cn1ccc(C(F)(F)F)c/c1=N\C(=O)C1(C)COC1 [Example 6],38%,26%
CCC1(C(=O)/N=c2\cc(C(F)(F)F)ccn2C)COC1 [Example 7],40%,66%
COc1ccn(C)/c(=N/C(=O)C2(C)COC2)c1 [Example 8],58%,61%
CCn1ccc(OC)c/c1=N\C(=O)C1(C)COC1 [Example 10],25%,8%
CCn1ccc(OC)c/c1=N\C(=O)C1(CC)COC1 [Example 11],65%,7%
CCOc1ccn(C)/c(=N/C(=O)C2(C)COC2)c1 [Example 12],19%,10%
CCOc1ccn(C)/c(=N/C(=O)C2(CC)COC2)c1 [Example 13],33%,13%
Cn1ccc(OC(F)(F)F)c/c1=N\C(=O)C1(C)COC1 [Example 14],21%,7%
CCC1(C(=O)/N=c2\cc(OC(F)(F)F)ccn2C)COC1 [Example 15],2%,120%
Cn1ccc(F)c/c1=N\C(=O)C1(C)COC1 [Example 16],73%,62%
CCC1(C(=O)/N=c2\cc(F)ccn2C)COC1 [Example 17],77%,7%
CCn1ccc(F)c/c1=N\C(=O)C1(C)COC1 [Example 18],30%,26%
CCn1ccc(F)c/c1=N\C(=O)C1(CC)COC1 [Example 19],112%,19%
Cn1ccc(Cl)c/c1=N\C(=O)C1(C)COC1 [Example 20],16%,49%
CCC1(C(=O)/N=c2\cc(Cl)ccn2C)COC1 [Example 21],37%,7%
CCn1ccc(Cl)c/c1=N\C(=O)C1(C)COC1 [Example 22],28%,48%
CCn1ccc(Cl)c/c1=N\C(=O)C1(CC)COC1 [Example 23],56%,11%
Cc1cc/c(=N\C(=O)C2(C)COC2)n(C)c1 [Example 24],121%,58%
CCC1(C(=O)/N=c2\ccc(C)cn2C)COC1 [Example 25],73%,21%
Cn1cc(C(F)(F)F)cc/c1=N\C(=O)C1(C)COC1 [Example 26],23%,38%

SMILES,activity at 0.1 µM,activity at 1 µM
CCC1(C(=O)/N=c2\ccc(C(F)(F)F)cn2C)COC1 [Example 27],19%,28%
COc1cc/c(=N\C(=O)C2(C)COC2)n(C)c1 [Example 28],47%,98%
CCC1(C(=O)/N=c2\ccc(OC)cn2C)COC1 [Example 29],89%,33%
Cn1cc(F)cc/c1=N\C(=O)C1(C)COC1 [Example 30],50%,59%
Cn1cc(Cl)cc/c1=N\C(=O)C1(C)COC1 [Example 32],33%,31%
CCC1(C(=O)/N=c2\ccc(Cl)cn2C)COC1 [Example 33],33%,50%
Cc1c/c(=N\C(=O)C2(C)COC2)n(C)cc1C [Example 34],18%,85%
CCC1(C(=O)/N=c2\cc(C)c(C)cn2C)COC1 [Example 35],95%,97%
Cc1c/c(=N\C(=O)C2(C)COC2)n(C)cc1F [Example 36],13%,16%
CCC1(C(=O)/N=c2\cc(C)c(F)cn2C)COC1 [Example 37],29%,53%
Cc1c/c(=N\C(=O)C2(C)COC2)n(C)cc1Br [Example 38],21%,33%
CCC1(C(=O)/N=c2\cc(C)c(Br)cn2C)COC1 [Example 39],15%,94%
CCC1(C(=O)/N=c2\cc(OC)c(Cl)cn2C)COC1 [Example 41],18%,45%
Cn1cccc/c1=N\C(=O)C1CCN(CC(F)(F)F)CC1 [Example 42],82%,96%
"Cn1cccc/c1=N\C(=O)C1(C)CNC1 [Example 43, 3-Methyl-N-[(2E)-1-methylpyridin-2(1H)-ylidene]azetidine-3-carboxamide]",49%,57%
COc1ccn(C)/c(=N/C(=O)C2(C)CNC2)c1 [Example 44],23%,10%
CCn1ccc(OC)c/c1=N\C(=O)C1(C)CNC1 [Example 45],25%,35%
Cn1cc(F)cc/c1=N\C(=O)C1(C)CNC1 [Example 46],85%,49%
Cc1cc/c(=N\C(=O)C2(C)CNC2)n(C)c1 [Example 47],25%,40%
Cn1cc(C(F)(F)F)cc/c1=N\C(=O)C1(C)CNC1 [Example 48],63%,68%
"CN1CC(C)(C(=O)/N=c2\ccccn2C)C1 [Example 49, 1,3-Dimethyl-N-[(2E)-1-methylpyridin-2(1H)-ylidene]azetidine-3-carboxamide]",78%,74%
CCn1ccc(OC)c/c1=N\C(=O)C1(C)CN(C)C1 [Example 52],68%,60%

SMILES,activity at 0.1 µM,activity at 1 µM
CCOc1ccn(C)/c(=N/C(=O)C2(C)CN(C)C2)c1 [Example 53],16%,92%
CN1CC(C)(C(=O)/N=c2\cc(OC(F)(F)F)ccn2C)C1 [Example 54],18%,13%
Cc1cc/c(=N\C(=O)C2(C)CN(C)C2)n(C)c1 [Example 55],92%,74%
CN1CC(C)(C(=O)/N=c2\ccc(F)cn2C)C1 [Example 56],30%,68%
Cc1c/c(=N\C(=O)C2(C)CN(C)C2)n(C)cc1C [Example 57],13%,31%
Cc1c/c(=N\C(=O)C2(C)CN(C)C2)n(C)cc1F [Example 58],36%,17%
Cc1c/c(=N\C(=O)C2(C)CN(C)C2)n(C)cc1Br [Example 59],6%,4%
"Cn1cccc/c1=N\C(=O)N1CCOCC1 [Example 61, N-[(2E)-1-methylpyridin-2(1H)-ylidene]morpholine-4-carboxamide]",73%,53%
Cn1cccc/c1=N\C(=O)C1CCCO1 (centres unmarked) [Example 62],76%,79%
Cn1cccc/c1=N\C(=O)C1CCOC(C)(C)C1 (centres unmarked) [Example 64],69%,72%
CN1CCC(C(=O)/N=c2\ccccn2C)CC1 [Example 65],86%,67%
Cn1cccc/c1=N\C(=O)C1CNC1 [Example 66],61%,66%
Cn1cccc/c1=N\C(=O)C1CCNC1 (centres unmarked) [Example 67],62%,72%
Cn1cccc/c1=N\C(=O)C1CCNCC1 [Example 68],80%,31%
CN1CC(C(=O)/N=c2\ccccn2C)C1 [Example 69],89%,41%
CN1CCC(C(=O)/N=c2\ccccn2C)C1 (centres unmarked) [Example 70],77%,31%
"CC(C)N1CC(C)(C(=O)/N=c2\ccccn2C)C1 [Example 71, 3-Methyl-N-[(2E)-1-methylpyridin-2(1H)-ylidene]-1-(propan-2-yl)azetidine-3-carboxamide]",64%,73%
"Cn1cccc/c1=N\C(=O)C1(C)CN(C2CC2)C1 [Example 72, 1-Cyclopropyl-3-methyl-N-[(2E)-1-methylpyridin-2(1H)-ylidene]azetidine-3-carboxamide]",64%,75%
"Cn1cccc/c1=N\C(=O)C1(C)CN(CC(F)(F)F)C1 [Example 73, 3-Methyl-N-[(2E)-1-methylpyridin-2(1H)-ylidene]-1-(2,2,2-trifluoroethyl)azetidine-3-carboxamide]",79%,76%
"Cn1cccc/c1=N\C(=O)N1CCOCC1(C)C [Example 74, 3,3-Dimethyl-N-[(2E)-1-methylpyridin-2(1H)-ylidene]morpholine-4-carboxamide]",30%,64%
